Assay results as given in patent US20240124510A1, “Cyclic Glycoaminoacid Derivatives” (TFCHEM, priority 2021, published 2024).
Values joined by “and” are separate entries in the source; they are usually repeats but may differ in a detail not shown here. Equal values may be shown once.

Tests used:
[1] = tested on: IL-6; experiment: Extracellular secretion of IL-6 by preadipocytes in inflammatory condition (ELISA); type: cell-based, human; details: for IL-6 secretion, Mean / IL-6 secretion, Values: normalized by cells number (DAPI); for IL-6 secretion, Values: individual values; for IL-6 secreted, normalized by cell number, in % of AcMC condition: preadipocytes/adipocytes
Procedure: Preadipocytes have been isolated from human female hypodermis (body mass index <30 kg/m2 and <45 years old). Preadipocytes have been cultured for 24 h in 100 μl of DMEM-10% Fetal Bovine Serum (FBS) in 96-well plates. Then cells were treated to induce their differentiation in a classical or an inflammatory environment for 13 days.
To induce the preadipocytes differentiation cells were incubated in a proadipogenic cocktail (PAC) including insulin, glucocorticoid, 3-isobutyl-1-methylxanthine (IBMX), and thiazolinedione in DMEM.
To induce a fibro-inflammatory environment, cells were treated with an activated human macrophage-conditioned medium (AcMC) prepared in RPMI medium. A treatment with Dexamethasone (DXM) at 100 nM was used as anti-inflammatory response control. At D0: preadipocytes have been treated in the following conditions: • “Undifferentiation”: DMEM+¼ RPMI medium • “Differentiation”: PAC+¼ RPMI medium • “AcMC” i.e. inflammatory condition: PAC+¼ AcMC • “AcMC+DXM”: PAC+[…] AcMC+anti-inflammatory DXM at 100 nM • “AcMc+compounds”: PAC+14 AcMC+compounds to be tested
All conditions have been performed in triplicate. The medium has been changed every 2 days for 13 days.
At D14: during the last 24 h of culture, the medium has been replaced by DMEM/F12 medium in all conditions, to collect cells' secretions.
After 13 days, the 24 h culture media of the different conditions have been collected at the end of the treatment period. The concentrations of IL-6, procollagen I and MCP1 have been evaluated by ELISA assays using specific kits (for IL-6: DY206, DuoSet ELISA, R&D Systems; for Procollagen I: DY6220-05, DuoSet ELISA, R&D Systems; for MCP1: DY279-05 DuoSet ELISA, R&D Systems) according to the manufacture's recommendations. Values have been normalized to the cell number determined by DAPI staining.
Quantity of IL-6 secreted in medium was measured and was normalized by cell number in each culture condition. Data are represented in percentage of proinflammatory control condition (AcMC condition).

[2] = tested on: SOD2 gene expression in aged human fibroblasts; experiment: SOD2 gene expression in aged human fibroblasts; type: cell-based; details: 6 mg/ml
[3] = tested on: neonatal skin fibroblasts (CCD-27SK); experiment: Preservation/protection of neonatal skin fibroblasts under starvation conditions, neutral red uptake assay; type: cell-based, human; details: for Variation of viability (stressed cells treated with compound 6 vs stressed cells): 17 mM; for OD 540 nm - mean value (cell viability): starvation medium + 17 mM
Procedure: The neonatal skin fibroblasts (Cell line: CCD-27SK. ATCC number CRL-1475) were grown with DMEM medium supplemented with Fetal Bovine Serum 10% final, antibiotics (Penicillin/Streptomycin) 1% final and Amphotericin B 0.1% final. Fibroblasts were grown in 75 cm^2 culture flask to 80% confluence in 37° C. and 10% CO2 incubator. The medium was changed every two days by 37° C. preheated fresh medium.
This medium was composed of 45% subculturing medium without Fetal Bovine Serum mixed with 55% of Phosphate Buffer Saline IX containing EDTA (final concentration of 0.45 mM). This was referred to as serum-free medium or starvation medium.
Compound 6 (MM=356.3 g/mol) was diluted in starvation medium to 17 mM final and pH was adjusted at 7.4 by addition of NaOH 1N.
Fibroblast cells were concentrated to 2.10^5 cells/ml and 100 μl of cell suspension was added in wells of a 96-well plate and incubated in 37° C. and 10% CO2 incubator for 4 hours.
After cell adhesion the medium was changed and plates were incubated (37° C.-10% CO2) to perform the assay as follows: • One plate for each sampling times: D0, D4, D7 days; • Three wells for each condition (triplicate count) added with 120 μl of culture medium (surviving control), starvation medium (serum-free control) or compound 6 solution at 17 mM.
The neutral red uptake assay was used for the determination of cell viability. This assay is based on the ability of viable cells to incorporate and bind the supravital dye neutral red in its lysosomes. Thus, only the viable cells are dyed. At D4 and D7, the plates were incubated with neutral red solution for 3.5 hours. The cells are subsequently washed, the dye is extracted in each well and the absorbance is read using a spectrophotometer.
For sampling, 1 mL of DMEM (without phenol red indicator) with neutral red (OD=0.110) was added to the cells for 3.5 hours (37° C. 10% CO2). After incubation. the medium was removed. Two washes with PBS were realized and 1 mL of extraction solution (absolute ethanol 49%, ultrapure water 49%, glacial acetic acid 2%) was added. Plates were placed 15 minutes on rotary shaker in the dark before reading OD at 540 nm.
The OD540 nm average values were compared and the variation of viability was calculated as follows:
Variation of viability at Dx=(OD540 nm of tested solution−blank) at Dx/(OD540 nm of stress control−blank) at Dx.

N[C@H]1CCCN(CC(F)(F)[C@]2(O)O[C@H](CO)[C@H](O)[C@H](O)[C@H]2O)C1=O [Compound 6]
IL-6 secretion, Mean ([1]; AcMC + 1 mg/ml): 84.0 % of AcMC condition
IL-6 secretion, Values ([1]; AcMC + 1 mg/ml): 66.1 % of AcMC condition and 95.1 % of AcMC condition and 90.8 % of AcMC condition
IL-6 secretion, Mean ([1]; AcMC + 2 mg/ml): 28.1 % of AcMC condition
IL-6 secretion, Values ([1]; AcMC + 2 mg/ml): 25.5 % of AcMC condition and 26.8 % of AcMC condition and 31.9 % of AcMC condition
IL-6 secreted, normalized by cell number, in % of AcMC condition ([1]; 1 mg/ml): 84%
IL-6 secreted, normalized by cell number, in % of AcMC condition ([1]; 2 mg/ml): 28.1%
IL-6 secreted, normalized by cell number, in % of AcMC condition ([1]; 2 mg/ml, listed as compound 6): 28.1% and 28%
increased SOD2 gene expression compared to the control [2]: 204%
Variation of viability (stressed cells treated with compound 6 vs stressed cells) ([3]; D 4): 2.3 and 2.32
OD 540 nm - mean value (cell viability) ([3]; D 4): 0.274
Variation of viability (stressed cells treated with compound 6 vs stressed cells) ([3]; D 7): 3.4 and 3.39
OD 540 nm - mean value (cell viability) ([3]; D 7): 0.224
